≈ marks a conversion by molar mass, not a printed value.
Tests used:
[1] = tested on: Staphylococci epidermidis D-513; test: Sensitivity of strains: suppression of growth; assay type: cell-based; conditions: Compound (1) 1.0%; antibiotics disc method
Alkaligenes sp. B-667 = test: Sensitivity of strains: suppression of growth; assay type: cell-based; conditions: Compound (1) 1.0%; antibiotics disc method
Acinetobacter B-681 = test: Sensitivity of strains: suppression of growth; assay type: cell-based; conditions: Compound (1) 1.0%; antibiotics disc method
Alkaligenes sp. B-689 = test: Sensitivity of strains: suppression of growth; assay type: cell-based; conditions: Compound (1) 1.0%; antibiotics disc method
[2] = tested on: Staphylococcus aureus B-685; test: Sensitivity of strains: suppression of growth; assay type: cell-based; conditions: Compound (1) 1.0%; antibiotics disc method
[3] = tested on: Pseudomonas aeruginosa B-601; test: Sensitivity of strains: suppression of growth; assay type: cell-based; conditions: Compound (1) 1.0%; antibiotics disc method
[4] = tested on: γ-hemolytic streptococcus B-672; test: Sensitivity of strains: suppression of growth; assay type: cell-based; conditions: Compound (1) 1.0%; antibiotics disc method
Escherichia coli B-683 = test: Sensitivity of strains: suppression of growth; assay type: cell-based; conditions: Compound (1) 1.0%; antibiotics disc method
[5] = tested on: Enterobacter aerogenes B-679; test: Sensitivity of strains: suppression of growth; assay type: cell-based; conditions: Compound (1) 1.0%; antibiotics disc method
[6] = tested on: Conditional pathogenic enterobacteria gram-negative aerobic bacilli; assay type: cell-based; further: key: + sensitive strains; + moderately sensitive strains; − stable strains
[7] = tested on: β-hemolytic streptococcus B-624; test: Sensitivity of strains: suppression of growth; assay type: cell-based; conditions: Compound (1) 1.0%; antibiotics disc method
[8] = tested on: Yersinia pseudotuberculosis; assay type: cell-based; conditions: Compound (1) 1.0%; antibiotics disc method
[9] = tested on: Klebsiella pneumoniae M-A21; test: Sensitivity of strains: suppression of growth; assay type: cell-based; conditions: Compound (1) 1.0%; antibiotics disc method
[10] = tested on: Citrobacter diversus B-678; test: Sensitivity of strains: suppression of growth; assay type: cell-based; conditions: Compound (1) 1.0%; antibiotics disc method
Acinetobacter B-676 = test: Sensitivity of strains: suppression of growth; assay type: cell-based; conditions: Compound (1) 1.0%; antibiotics disc method
[11] = tested on: Corynebacterium diphtheriae B-670; test: Sensitivity of strains: suppression of growth; assay type: cell-based; conditions: Compound (1) 1.0%; antibiotics disc method
Acinetobacter B-677 = test: Sensitivity of strains: suppression of growth; assay type: cell-based; conditions: Compound (1) 1.0%; antibiotics disc method
[12] = tested on: Enterobacter aerogenes B-687; test: Sensitivity of strains: suppression of growth; assay type: cell-based; conditions: Compound (1) 1.0%; antibiotics disc method
[13] = tested on: Staphylococcus epidermidis BK-30; test: Sensitivity of strains: suppression of growth; assay type: cell-based; conditions: Compound (1) 1.0%; antibiotics disc method
[14] = tested on: Staphylococcus aureus M-12159; test: Sensitivity of strains: suppression of growth; assay type: cell-based; conditions: Compound (1) 1.0%; antibiotics disc method
Escherichia coli M-17 = test: Sensitivity of strains: suppression of growth; assay type: cell-based; conditions: Compound (1) 1.0%; antibiotics disc method
[15] = tested on: Neisseria meningitidis M-A72; test: Sensitivity of strains: suppression of growth; assay type: cell-based; conditions: Compound (1) 1.0%; antibiotics disc method
[16] = tested on: Staphylococcus aureus B-674; test: Sensitivity of strains: suppression of growth; assay type: cell-based; conditions: Compound (1) 1.0%; antibiotics disc method
[17] = tested on: Salmonella paratyphi M-16469; test: Sensitivity of strains: suppression of growth; assay type: cell-based; conditions: Compound (1) 1.0%; antibiotics disc method
Mycobact tub. H.37RV = test: Anti-TB effect, serial double dilution in liquid medium; assay type: cell-based, M tuberculosis; conditions: 10-14 days incubation at 37° C.; read-out: Minimal Inhibitory Concentration
[18] = tested on: Staphylococcus aureus M-209; test: Sensitivity of strains: suppression of growth; assay type: cell-based; conditions: Compound (1) 1.0%; antibiotics disc method
[19] = tested on: Neisseria meningitidis M-6231; test: Sensitivity of strains: suppression of growth; assay type: cell-based; conditions: Compound (1) 1.0%; antibiotics disc method
[20] = tested on: Klebsiella pneumoniae M-248; test: Sensitivity of strains: suppression of growth; assay type: cell-based; conditions: Compound (1) 1.0%; antibiotics disc method
Escherichia coli B-65 = test: Sensitivity of strains: suppression of growth; assay type: cell-based; conditions: Compound (1) 1.0%; antibiotics disc method
[21] = in vivo; cited from earlier work

Structure (SMILES)	Suppression of Growth (+/−) [1]	Suppression of Growth (+/−) (Alkaligenes sp. B-667)	Suppression of Growth (+/−) (Acinetobacter B-681)	Suppression of Growth (+/−) [2]	Suppression of Growth (+/−) [4]	Suppression of Growth (+/−) [5]	Suppression of Growth (+/−) [6]	Suppression of Growth (+/−) [7]	Suppression of Growth (+/−) [8]	Suppression of Growth (+/−) [9]	Suppression of Growth (+/−) (Acinetobacter B-676)	Suppression of Growth (+/−) [11]	Suppression of Growth (+/−) (Acinetobacter B-677)	Suppression of Growth (+/−) [12]	Suppression of Growth (+/−) [13]	Suppression of Growth (+/−) [14]	Suppression of Growth (+/−) [15]	MIC (Mycobact tub. H.37RV) [µg/mL]	Suppression of Growth (+/−) [18]	Suppression of Growth (+/−) [19]	also measured
CO[C@H]1/C=C/O[C@@]2(C)Oc3c(C)c(O)c4c(O)c(c(/C=N/N5CCN(C)CC5)c(O)c4c3C2=O)NC(=O)/C(C)=C\C=C\[C@H](C)[C@H](O)[C@@H](C)[C@@H](O)[C@@H](C)[C@H](OC(C)=O)[C@@H]1C [Antibiotic 10, rifampicin]	+	+	+	+	−	−	−	+	−	−	+	+	+	−	+	+	−	0.01 to 0.02 (≈ 0.0122 to 0.0243 µM)	+	−	Suppression of Growth (+/−) (Alkaligenes sp. B-689): −; Suppression of Growth (+/−) [3]: −; Suppression of Growth (+/−) (Escherichia coli B-683): −; Suppression of Growth (+/−) [10]: −; Suppression of Growth (+/−) (Escherichia coli M-17): −; Suppression of Growth (+/−) [16]: −; Suppression of Growth (+/−) [17]: −; Suppression of Growth (+/−) [20]: −; Suppression of Growth (+/−) (Escherichia coli B-65): −
[H]/N=C(/N)N[C@H]1[C@H](O)[C@@H](O)[C@H](O[C@@H]2O[C@@H](C)[C@](O)(C=O)[C@H]2O[C@@H]2O[C@@H](CO)[C@H](O)[C@@H](O)[C@@H]2NC)[C@@H](N/C(N)=N\[H])[C@@H]1O [Antibiotic 12, streptomycin]	−	−	−	+	−	−	−	−	−	−	−	−	−	−	−	+	−	0.5 (≈ 0.86 µM)	+	−	Suppression of Growth (+/−) [20]: −
NCCSSCCN [cystamine]																					index of protection [21]: ≤ 1.45; side effect [21]: causes diarrhea
NCCS [mercamine, β-mercaptoethylamine]																					duration of radiation protecting activity [21]: 15 to 30 min; period of action [21]: 0.5 to 1 h
